Test results as given in patent publication US12496306B2 (REMEDY PHARMACEUTICALS, INC., priority 2021, dated 2025).

Assay: Compounding experiments, bulk solution stability in Tris buffer
Type: physicochemical
Details: 1 mg/ml, at least 24 h, room temperature
From the text: This is because Tris buffers effectively in the range of pH 7-9 (i.e. ±1 pH unit from pKa of 8.1). Outside of this pH range, the bulk solution is no longer buffered even with the addition of Tris. To maintain bulk solution stability, it is necessary to increase the compounding pH above 9, which is outside of the buffering range of Tris.

minimum compounding pH required to maintain bulk solution stability: ≥ 9.1
SMILES: COc1ccc(Cl)cc1C(=O)NCCc1ccc(S(=O)(=O)NC(=O)NC2CCCCC2)cc1 [glibenclamide, 5-chloro-N-(4-[N-(cyclohexylcarbamoyl)sulfamoyl]phenethyl)-2-methoxybenzamide]
